By melting point is commonly meant the temperature, or range, at which the solid turns liquid.

One data set concerns PDE4. Nature of the data set: Inhibition of PDE4 activity (method of Bauer and Schwabe, microtiter plates). To be noted: inhibitory concentration as −log IC50 (mol/l). In kind it is biochemical. How it is done: The activity test was carried out according to the method of Bauer and Schwabe, which was adapted to microtiter plates (Naunyn-Schmiedeberg's Arch. Pharmacol. 1980, 311, 193-198). The PDE reaction takes place in the first step here. In a second step, the resulting 5′-nucleotide is cleaved by a 5′-nucloetidase of the snake venom of Crotalus atrox to the uncharged nucleoside. In the third step, the nucleoside is separated from the remaining charged substrate on ion-exchange columns. The columns are eluted directly into minivials, into which 2 ml of scintillator fluid are additionally added for counting, using 2 ml of 30 mM ammonium formate (pH 6.0).
The inhibitory values determined for the compounds according to the invention [inhibitory concentration as −log IC50 (mol/l)] follow from the following Table A, in which the numbers of the compounds correspond to the numbers of the examples.
On to `COc1cc2c(cc1OC)C1CCCCC1N=C2c1cc(C(F)(F)F)cc(C(F)(F)F)c1` (single isomer, unassigned; (-)) [Compound 2, (−)-cis-6-(Bis-3,5-trifluoromethylphenyl)-8,9-dimethoxy-1,2,3,4,4a,10b-hexahydrophenanthridine], for which the “−log IC50 (inhibition of the PDE4 activity)” value was 6.93.

With `COc1cc2c(cc1OC)[C@@H]1CCCC[C@@H]1N=C2c1ccc([N+](=O)[O-])c([N+](=O)[O-])c1` [Compound 1, (−)-cis-8,9-Dimethoxy-6-(3,4-dinitrophenyl)-1,2,3,4,4a,10b-hexahydrophenanthridine], the “−log IC50 (inhibition of the PDE4 activity)” value was found to be 7.26.

As for `COc1cc2c(cc1OC)[C@@H]1CCCC[C@@H]1N=C2c1cc([N+](=O)[O-])cc([N+](=O)[O-])c1` [Compound 3, (−)-cis-8,9-Dimethoxy-6-(3,5-dinitrophenyl)-1,2,3,4,4a,10b-hexahydrophenanthridine], the “−log IC50 (inhibition of the PDE4 activity)” value is 6.56.

As for `COc1cc2c(cc1OC)[C@@H]1CCCC[C@@H]1N=C2c1cc(OC)c(OC)c(OC)c1` [Compound 4, (−)-cis-8,9-Dimethoxy-6-(3,4,5-trimethoxyphenyl)-1,2,3,4,4a,10b-hexahydrophenanthridine], the “−log IC50 (inhibition of the PDE4 activity)” value is reported as 6.96.

Turning to `COc1cc2c(cc1OC)[C@@H]1CCCC[C@@H]1N=C2c1cc(OC)c(OC)c(S(C)(=O)=O)c1` [Compound 5, (−)-cis-6-(3-Methanesulfonyl-4,5-dimethoxyphenyl)-8,9-dimethoxy-1,2,3,4,4a,10b-hexahydrophenanthridine], the “−log IC50 (inhibition of the PDE4 activity)” value stood at 7.57.

For the compound `CCOc1cc(C2=N[C@H]3CCCC[C@H]3c3cc(OC)c(OC)cc32)cc(OCC)c1OCC` [Compound 6, (−)-cis-8,9-Dimethoxy-6-(3,4,5-triethoxyphenyl)-1,2,3,4,4a,10b-hexahydrophenanthridine], the “−log IC50 (inhibition of the PDE4 activity)” value is given as 7.81.

Test system in the next data set: not given
Assay: not given
Settings: not given
`COc1cc2c(cc1OC)[C@@H]1CCCC[C@@H]1N=C2c1ccc([N+](=O)[O-])c([N+](=O)[O-])c1` [Compound 1, (−)-cis-8,9-Dimethoxy-6-(3,4-dinitrophenyl)-1,2,3,4,4a,10b-hexahydrophenanthridine] yielded a melting point of 162 to 165 °C.

For the origin of these results see patent US6534518B1, “Polysubstituted 6-phenylphenanthridines with PDE-IV inhibiting activity” (Altana Pharma AG, priority 1999, dated 2003).
